In patent US20110104167A1, “Compositions and Methods for Diagnosing and Treating Insulin Resistance” (YEDA RESEARCH AND DEVELOPMENT CO. LTD., priority 2004, published 2011):
Where a SMILES comes first, the peptide text is derived from it. The star is where a group is joined. Cbz = O=C(OCc1ccccc1)*

Experiments:
[1] = test system: IRS-1; assay: Effect of proteosome inhibitor on IRS-1 protein content and Tyr phosphorylation; assay type: cell-based; details: not shown
[2] = test system: CHO-T cells; assay: Phosphorylation (mobility shift) of truncated IRS-1 PH/PTB constructs in CHO-T cells; assay type: cell-based, Chinese Hamster; details: 25 nM calyculin A 60 min
Protocol: (§1) FIGS. 7a-c show In vivo phosphorylation of PH/PTB-L in response to insulin. CHO-T cells were transiently transfected with pcDNA3-Myc-PH/PTB (1-1290 nt) or with an insert-free plasmid (control). Twenty-four hours post-transfection, the cells were deprived of serum for 16 h and were then treated with insulin for the indicated time periods. Cell extracts (100 μg) were resolved on 10% SDS-PAGE and immunoblotted with anti-pY or anti-Myc antibodies (FIG. 7a). In parallel, samples (100 μg, 40 μl) were incubated with 3 units (U) of calf intestine phosphatase (CIP) at 37° C. for 1 h. The samples were resolved on 10% SDS-PAGE and immunoblotted with anti-Myc antibodies (FIG. 7b). The results are of a representative of two experiments. FIG. 7c—CHO^PH/PTB-L cells were starved in serum-free F12 medium for 16 h. The cells were treated for 30 min with the indicated inhibitors prior to being treated with 100 nM insulin for 30 min. Cell extracts were prepared, samples were resolved on 10% SDS-PAGE and were immunoblotted with anti-Myc antibodies. Results are of a representative of three experiments.
FIGS. 8a-b show the effects of insulin on Serine phosphorylation of Myc-PH/PTB-L^7A CHO-T cells were transiently transfected with constructs encoding Myc-PH/PTB-L (1-1290 nt), either wild type (WT) or the 7A mutant (FIG. 8a). Alternatively, the cells were transfected or with the constructs encoding Myc-PH/PTB-L (1-1290 nt; 1-430 aa) or Myc-PH/PTB-S (1-1095 nt; 1-365 aa, FIG. 8b). Following 24 hours in culture, the cells were incubated in serum-free F12 medium for 16 ch prior to being treated with insulin for the indicated times. Cell extracts were resolved on 10% SDS-PAGE and immunoblotted with anti-Myc antibodies. Results are of a representative of three experiments.
FIGS. 9a-b show the effects of insulin and calyculin A on Ser phosphorylation of PH/PTB-L mutants. FIG. 9a—CHO-T cells were transiently transfected with constructs expressing either Myc-PH/PTB^WT or the following PH/PTB mutants: S336A, S407A, S408A, S407/8A and S3A (S336/407/408A). Following 24 hours the cells were deprived of serum for 16 h, and were treated with insulin for the indicated times. Cell extracts were resolved on 10% SDS-PAGE and immunoblotted with anti-Myc antibodies. The results are of a representative of two-three experiments. FIG. 9b—CHO-T cells were transiently transfected with pcDNA3-myc-PH/PTB^WT or pcDNA3-myc-PH/PTB^S408A. Following 24 hours the cells were starved for 16 h and were then treated either with 100 nM insulin for 30 min or with 25 nM calyculin A for 60 min. Cell extracts were resolved on 10% SDS-PAGE and were immunoblotted with anti-Myc antibodies. Results are of a representative of two experiments.
Plasmids construction—i. Myc-tagged-IRS-1 The cDNA, encoding for the mouse IRS-1 in the pCNA-3 expression plasmid (35) was digested with Hind III and BspE-1. This deleted a 9 by fragment from the 5′-IRS-1 cDNA that was replaced by a double stranded synthetic oligonucleotide encoding the Myc tag and the missing amino-acids of IRS-1 (bold) […] (SEQ ID NO. 9). ii. Myc-tagged truncated IRS-1 (aa 1-430, PH/PTB-L) Myc-tagged mouse IRS-1 cDNA (N-terminus, 1-1290 nt), encoding for the first 430 aa of IRS-1, was PCR-amplified with the following primers. 5′-CAGGATCCGCATATGGAACAAAAGCTC-3′ (sense) (SEQ ID NO. 10); 5′-GAGAATTCATCAGGGACTAGAACCATA-3′ (anti-sense) (SEQ ID NO. 11), using as a template the pcDNA3-Myc-IRS-1 plasmid. The PCR product was ligated into a pGEM-T. The insert was excised from pGEM-T with BamH I and EcoR I (italic), and then was ligated into pcDNA3 at the same restriction sites to generate pcDNA3-Myc-IRS-1^PH/PTB-L. iii. Myc-tagged truncated IRS-1 (aa 1-365, PH/PTB-S) Myc-tagged mouse IRS-1 cDNA (N-terminus, 1-1095 nt), encoding for the first 365 aa of IRS-1, was PCR-amplified with the following primers: 5′ […]-3′ (sense) (SEQ ID NO. 12); 5′ […] 3′ (anti sense) (SEQ ID NO. 13) using as a template the pcDNA3-Myc-IRS-1. […]

[3] = test system: S408 of IRS-1; assay: In vivo phosphorylation of S408 of IRS-1 in cultured Fao cells; assay type: cell-based, rat
Protocol: Following 48 hours, the cells were starved for 16 hours. The medium was removed and the cells were incubated with or without 100 nM insulin for the indicated times (FIG. 10a). Alternatively, the cells were incubated with insulin, SMase or calyculin A as indicated (FIG. 10b). Cytosolic extracts (100 μg) were resolved on 7.5% SDS-PAGE and immunoblotted with anti-phospho-Ser 408 antibody or anti-PY antibodies as indicated.
Infection of Fao cells with adenovirus—Fao cells were grown in RPMI medium containing 10% FCS. At 70% confluence cells were infected with adenoviruses harboring the gene of interest at a titer of 7 10^7 PFU/ml. After incubation for 2 h hours at 37° C., the virus-containing medium was diluted 1:5 in fresh RPMI medium. After 24 h the medium was replaced with a fresh RPMI medium containing 10% FCS. 48 h post-infection the Fao cells were starved in serum-free RPMI for 16 h and were then subjected to the indicated treatments as described below.
Treatment of cells and preparation of extracts—Virally-infected Fao cells were grown as described above. Nave Rat hepatoma (Fao) cells or CHO cells were grown in RPMI medium supplemented with 10% fetal calf serum as described (22). At 70-80% confluence, cells were deprived of serum for 16 h prior to each experiment, and were then incubated with inducers of insulin resistance and/or insulin. […]

[4] = test system: insulin receptor; details: Fao cells, 10^−7M insulin, prolonged; cited from earlier work
[5] = test system: CHO-T cells; assay: Insulin-induced Tyr phosphorylation of IRS-1 in stably transfected CHO-T cells; assay type: cell-based, Chinese Hamster
Protocol: FIGS. 1a-c show Tyrosine (Tyr) phosphorylation of IRS-1^7A and its interactions with IR. FIG. 1a—monolayers of CHO-T cells stably overexpressing either WT-IRS-1 (CHO-T^WT) or IRS-1^7A (CHO-T^7A) at 80% confluence (grown in 6 cm plates) were deprived of serum for 16 h prior to the experiment. The cells were then incubated with insulin for the indicated times at 37° C. Cells extracts (100 μg) were resolved on 7.5 SDS-PAGE and immunoblotted with the indicated antibodies. The results are of a representative of six experiments. FIG. 1b—IRS-1 was isolated from CHO-T^WT or CHO-T^7A cells. In vitro phosphorylation of IRS-1^WT and IRS-1^7A by Insulin receptor (IR) was effected as described under “Materials and Experimental Procedures” section of the Examples section which follows. The reaction mixture was subjected to immunoprecipitation with anti-IRS-1 antibodies. Immunocomplexes were resolved on 7.5 SDS-PAGE and immunoblotted with anti-phosphotyrosine (pY) or anti IRS-1 antibodies. FIG. 1c—CHO-T^WT (expressing wild type IRS-1) and CHO-T^7A (expressing the 7A IRS-1 mutant) cells were deprived of serum for 16 h prior to the experiment. The cells were stimulated with 100 nM insulin for the indicated times at 37° C. Cell extracts were prepared and samples (1 mg) were bound to immobilized IR. […]

[6] = target: insulin receptor (IR) of Fao rat hepatoma cells (rat (Fao rat hepatoma cells)) (UniProt P15127); assay: cell-based or functional assay
Chain of insulin receptor (IR) of Fao rat hepatoma cells (rat (Fao rat hepatoma cells)) (P15127 27-1383 limits assumed): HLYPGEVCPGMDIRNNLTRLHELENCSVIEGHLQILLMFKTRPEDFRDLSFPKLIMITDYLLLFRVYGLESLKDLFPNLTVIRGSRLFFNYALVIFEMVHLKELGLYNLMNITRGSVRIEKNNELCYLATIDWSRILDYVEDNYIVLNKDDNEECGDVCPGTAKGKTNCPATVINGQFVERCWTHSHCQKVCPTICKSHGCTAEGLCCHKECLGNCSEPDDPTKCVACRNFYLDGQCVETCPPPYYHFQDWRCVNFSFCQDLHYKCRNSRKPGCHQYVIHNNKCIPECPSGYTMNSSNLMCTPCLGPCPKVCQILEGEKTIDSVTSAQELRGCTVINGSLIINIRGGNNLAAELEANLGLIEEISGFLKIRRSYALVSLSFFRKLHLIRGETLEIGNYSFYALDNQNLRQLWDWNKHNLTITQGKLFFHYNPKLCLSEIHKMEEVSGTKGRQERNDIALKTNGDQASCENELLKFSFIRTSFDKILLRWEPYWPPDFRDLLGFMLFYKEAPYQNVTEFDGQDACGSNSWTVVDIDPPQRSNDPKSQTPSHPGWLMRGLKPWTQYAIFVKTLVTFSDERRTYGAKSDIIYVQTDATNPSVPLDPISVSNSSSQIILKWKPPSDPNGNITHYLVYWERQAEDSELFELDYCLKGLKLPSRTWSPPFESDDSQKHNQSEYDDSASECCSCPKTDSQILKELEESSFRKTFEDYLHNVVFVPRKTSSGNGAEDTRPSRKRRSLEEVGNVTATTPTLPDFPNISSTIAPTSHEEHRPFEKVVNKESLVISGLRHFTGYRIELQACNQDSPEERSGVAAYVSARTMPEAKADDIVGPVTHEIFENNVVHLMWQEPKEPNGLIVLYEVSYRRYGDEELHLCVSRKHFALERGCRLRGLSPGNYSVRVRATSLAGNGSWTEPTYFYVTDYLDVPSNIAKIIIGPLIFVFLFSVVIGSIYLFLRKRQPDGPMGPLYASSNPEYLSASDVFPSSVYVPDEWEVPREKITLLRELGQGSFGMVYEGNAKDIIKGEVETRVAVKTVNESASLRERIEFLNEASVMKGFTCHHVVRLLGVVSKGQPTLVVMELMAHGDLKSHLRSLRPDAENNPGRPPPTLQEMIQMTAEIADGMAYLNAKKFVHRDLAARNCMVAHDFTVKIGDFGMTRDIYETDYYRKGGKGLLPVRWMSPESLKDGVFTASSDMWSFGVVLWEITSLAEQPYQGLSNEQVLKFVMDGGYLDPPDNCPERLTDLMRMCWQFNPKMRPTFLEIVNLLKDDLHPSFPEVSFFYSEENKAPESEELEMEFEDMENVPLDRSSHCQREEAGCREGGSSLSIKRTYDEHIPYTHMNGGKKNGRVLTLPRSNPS

[7] = target: T1, Myc-PH/PTB-L (Mus musculus, UniProt P35569); assay: In vitro dephosphorylation of Myc-PH/PTB-L with calf intestine alkaline phosphatase; assay type: biochemical; details: 3 units CIP, 37° C., 1 h
T1 construct: Myc-tagged truncated IRS-1 (aa 1-430, PH/PTB-L); expressed in transfected cells; host or cells: CHO-T cells, transient transfection with pcDNA3-Myc-PH/PTB (1-1290 nt)
T1 sequence (P35569 1-430): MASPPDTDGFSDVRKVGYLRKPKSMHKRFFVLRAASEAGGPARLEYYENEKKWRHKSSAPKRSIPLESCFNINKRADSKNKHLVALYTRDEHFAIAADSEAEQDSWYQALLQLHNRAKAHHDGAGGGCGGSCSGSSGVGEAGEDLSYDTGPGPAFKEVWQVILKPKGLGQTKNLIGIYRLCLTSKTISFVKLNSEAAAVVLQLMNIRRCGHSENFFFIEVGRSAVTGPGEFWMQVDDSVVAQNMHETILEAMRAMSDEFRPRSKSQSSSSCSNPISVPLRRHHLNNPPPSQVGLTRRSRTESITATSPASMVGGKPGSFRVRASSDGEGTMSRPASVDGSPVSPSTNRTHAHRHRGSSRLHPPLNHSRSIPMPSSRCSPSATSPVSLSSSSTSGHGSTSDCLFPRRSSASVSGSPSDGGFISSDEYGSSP
Protocol: as §1

## CC(C)C[C@@H](C=O)NC(=O)[C@H](CC(C)C)NC(=O)[C@H](CC(C)C)NC(=O)OCc1ccccc1 [MG-132] (Cbz-Leu-Leu-Leu-aldehyde)
[1]
  effect on protein content and Tyr phosphorylation patterns of IRS-1^7A and IRS-1^WT: did not alter significantly

## COC[C@@H]([C@H](O)[C@H](O)C(=O)NCC[C@H](C)c1nc(/C=C/C[C@@H]2O[C@]3(C[C@@H](O)[C@@H]2C)O[C@H]([C@H](C[C@H](O)[C@H](C)[C@H](O)[C@H](C)/C=C(C)/C(C)=C/C=C/C(C)=C\C#N)OC)[C@H](OP(=O)(O)O)C3(C)C)co1)N(C)C [Calyculin A]
[2]
  Ser phosphorylation (mobility shift) of Myc-PH/PTB-L^WT: triggers Ser phosphorylation
  mobility shift when Ser408 was mutated to Ala: significantly reduced
[3]; Fao cells infected with IRS-1^WT
  in vivo phosphorylation of S408: induced phosphorylation of S408

## insulin: human insulin used as stimulus
[4]
  reduction in ability of IRS-1 to interact with the insulin receptor: > 40%
[5]
  insulin treatment time at which maximal Tyr phosphorylation of IRS-1 was detected: 2 min
[3]; 100 nM insulin
  incubation time required for maximal phosphorylation of Ser408: 30 to 60 min

## Myc-IRS-1^WT (Myc-tagged wild-type mouse IRS-1 expressed in Fao cells from an adenoviral construct) (from UniProt P35569 4-1233)
[6]
  reduction of Tyr phosphorylation content following prolonged (60 min) insulin treatment: 55%

B1: CIP: calf intestine alkaline phosphatase (protein, UniProt P19111 20-506, looked up)
Intestinal-type alkaline …: LVPVEEEDPAFWNRQAAQALDVAKKLQPIQTAAKNVILFLGDGMGVPTVTATRILKGQMNGKLGPETPLAMDQFPYVALSKTYNVDRQVPDSAGTATAYLCGVKGNYRTIGVSAAARYNQCKTTRGNEVTSVMNRAKKAGKSVGVVTTTRVQHASPAGAYAHTVNRNWYSDADLPADAQMNGCQDIAAQLVNNMDIDVILGGGRKYMFPVGTPDPEYPDDASVNGVRKRKQNLVQAWQAKHQGAQYVWNRTALLQAADDSSVTHLMGLFEPADMKYNVQQDHTKDPTLQEMTEVALRVVSRNPRGFYLFVEGGRIDHGHHDDKAYMALTEAGMFDNAIAKANELTSELDTLILVTADHSHVFSFGGYTLRGTSIFGLAPSKALDSKSYTSILYGNGPGYALGGGSRPDVNDSTSEDPSYQQQAAVPQASETHGGEDVAVFARGPQAHLVHGVEEETFVAHIMAFAGCVEPYTDCNLPAPTTATSIPD
[7]
  effect on mobility shift of PH/PTB-L from insulin-treated cells: abolished the mobility shift
